# System: increased blood flow through the facial skin caused by endogenous CGRP
# Assay: Facial skin blood flow increase after trigeminal ganglion stimulation in marmosets (laser Doppler)
# Format: in vivo
# Conditions: anaesthetised marmosets; i.v. 5 min before the 2nd and 3rd stimulation periods; trigeminal ganglion stimulation 10Hz, 2 mA, 2 msec, for 30 sec
# From the text: The efficacy of the following test substances was characterised by determining the dose administered i.v. which reduces by 50% the increased blood flow through the skin of the face which has been brought about by endogenous CGRP: • (A) =1-[N^2-[3,5-dibromo-N-[[4-(3,4-dihydro-2(1H)-oxoquinazolin-3-yl)-1-piperidinyl]carbonyl]-D-tyrosyl]-L-lysyl]-4-(4-pyridinyl)-piperazine, • (B) =1-[4-amino-3,5-dibromo-N-[[4-(2,3,4,5-tetrahydro-2(1 H)-oxo-1,3-benzodiazepin-3-yl)-1-piperidinyl]carbonyl]-D-phenylalanyl]-4-(1-piperidinyl)-piperidine, • (AC) =(R,S)-1-[4-[4-(3,4-dihydro-2(1H)-oxoquinazolin-3-yl)-1-piperidinyl]-2-[(3,5-dibromo-4-methylphenyl)methyl]-1,4-dioxobutyl]-4-(4-methyl-1-piperazinyl)-piperidine, • (AM) =1-[4-amino-3,5-dibromo-N-[[4-(3,4-dihydro-2(1H)-oxoquinazolin-3-yl)-1-piperidinyl]carbonyl]-D-phenylalanyl]-4-(1-piperidinyl)-piperidine, • (DA =sumatriptan and • (DB) =zolmitriptan. Description of Method:
# Marmosets of both sexes (300-400 g) are anaesthetised with pentobarbital (initially with 30 mg/kg, i.p., followed by infusion of 6 mg/kg/h, […].). The body temperature is maintained at 37° C. using a heating plate. Pancurmium is administered as a muscle relaxant (initially 1 mg/kg, 0.5 mg after each hour thereafter). The animal's head is secured in a stereotactical apparatus. After the skin on the head has been opened using a lengthwise incision, a small hole is drilled in the skull and a bipolar electrode (Rhodes SNES 100) is lowered into the trigeminal ganglion.
# The petrous bone serves as a guide for placing the electrode (CCX-Digital X-ray apparatus). The position of the electrode in the ganglion is monitored at the end of each experiment. The stimulation parameters are: • 10Hz, 2 mA, 2 msec, for 30 sec.
# The blood flow in the micro-vessels of the facial skin is determined by laser Doppler flow measurement using a PeriFlux Laser Doppler System.
# The animals are exposed to 2 to 3 stimulation periods at intervals of 30 min in each case. The first stimulation serves as a reference value for the other stimulations. The test substances are administered i.v. 5 min before the 2nd and 3rd stimulation periods.
row,SMILES,50% dose = i.v. dose which reduces by 50% the increased blood flow through the facial skin caused by endogenous CGRP
1,"Cc1c(Br)cc(C[C@H](CC(=O)N2CCC(N3Cc4ccccc4NC3=O)CC2)C(=O)N2CCC(N3CCN(C)CC3)CC2)cc1Br (racemic) [Substance AC, (R,S)-1-[4-[4-(3,4-dihydro-2(1H)-oxoquinazolin-3-yl)-1-piperidinyl]-2-[(3,5-dibromo-4-methylphenyl)methyl]-1,4-dioxobutyl]-4-(4-methyl-1-piperazinyl)-piperidine]",0.018 mg/kg
2,"NCCCC[C@H](NC(=O)[C@@H](Cc1cc(Br)c(O)c(Br)c1)NC(=O)N1CCC(N2Cc3ccccc3NC2=O)CC1)C(=O)N1CCN(c2ccncc2)CC1 [Substance A, 1-[N^2-[3,5-dibromo-N-[[4-(3,4-dihydro-2(1H)-oxoquinazolin-3-yl)-1-piperidinyl]carbonyl]-D-tyrosyl]-L-lysyl]-4-(4-pyridinyl)-piperazine]",0.003 mg/kg
3,"Nc1c(Br)cc(C[C@@H](NC(=O)N2CCC(N3Cc4ccccc4NC3=O)CC2)C(=O)N2CCC(N3CCCCC3)CC2)cc1Br [Substance AM, 1-[4-amino-3,5-dibromo-N-[[4-(3,4-dihydro-2(1H)-oxoquinazolin-3-yl)-1-piperidinyl]carbonyl]-D-phenylalanyl]-4-(1-piperidinyl)-piperidine]",0.046 mg/kg
4,"Nc1c(Br)cc(C[C@@H](NC(=O)N2CCC(N3CCc4ccccc4NC3=O)CC2)C(=O)N2CCC(N3CCCCC3)CC2)cc1Br [Substance B, 1-[4-amino-3,5-dibromo-N-[[4-(2,3,4,5-tetrahydro-2(1H)-oxo-1,3-benzodiazepin-3-yl)-1-piperidinyl]carbonyl]-D-phenylalanyl]-4-(1-piperidinyl)-piperidine]",0.042 mg/kg
5,"CNS(=O)(=O)Cc1ccc2[nH]cc(CCN(C)C)c2c1 [Substance DA, sumatriptan, reference compound]",0.280 mg/kg
6,"CN(C)CCc1c[nH]c2ccc(C[C@H]3COC(=O)N3)cc12 [Substance DB, zolmitriptan, reference compound]",0.035 mg/kg
